Where no end group is shown, it is not given here.

Series [1] relates to male Wistar rats. In words: Irwin test. Format: in vivo, rat. The conditions noted are these: tail vein injection. On the procedure:
An Irwin test was performed on 12 male Wistar rats (Iffa Credo, L'Arbresles, France), weighing 260-280 g. They were housed in groups of 4 in a climate controlled room with a 12h light:dark cycle (light 8:00 PM-8:00 AM) and had access to food and water ad libitum. After a seven day acclimatization period, the rats were weighed, identified and randomly assigned to one of the four treatment groups. The drug was injected to the tail vein of the rats according to the group dose.
Observations were performed 15, 30, 60 and 120 minutes after administration. Among the most noticeable results are the results concerning the awareness state of the rats.

For series [2], the system named is male rats. The conditions noted are these: cited from earlier work.

With QHNPR [FG-005, Gln-His-Asn-Pro-Arg], in series [1], the aggressiveness result is “not associated with an increase of aggressiveness”.

As to `CC[C@H](C)[C@@H]1NC(=O)[C@H](Cc2ccc(O)cc2)NC(=O)[C@@H](N)CSSC[C@@H](C(=O)N2CCC[C@H]2C(=O)N[C@@H](CC(C)C)C(=O)NCC(N)=O)NC(=O)[C@H](CC(N)=O)NC(=O)[C@H](CCC(N)=O)NC1=O` [oxytocin], the locomotion entry in series [2] (high doses) is given as “decrease locomotion”. In series [2] (low doses), the anxiolytic-like effect result was “anxiolytic-like effect”.

These data come from US20030186870A1, “Therapeutic methods and compositions for the treatment of impaired interpersonal and behavioral disorders” (priority 1999, published 2003).
